In brackets after ≈: the same amount, converted by molar mass. Activity calls are given as the source filed them. The rule behind the calls is not given here.

The nature of assay [1]: Cytotoxicity against human HEPA 59T/VGH cells by MTT assay. The format is functional. To be noted: read-out: ED50 (the source's name).
Assay [2] concerns KB. In words: Cytotoxicity against human KB cells by MTT assay. The format is functional. A general note: Formazan colour is commonly taken as a measure of viable cells.

With `CC(C)[C@]12C=C3[C@](C)(O)CC[C@]3(OO1)[C@@H](C)CC2` (relative stereo) [PEROXYGIBBEROL], the EC50 in assay [1] worked out at 8.2 µg/mL (≈ 32.5 µM). The outcome in assay [2] was inactive.

As for `C=C1CC/C=C(\C)C[C@H](O)/C(C(C)C)=C\[C@H]2[C@H]1CC[C@]2(C)O` [SARCOPHYTOL L], in assay [1], the EC50 amounted to 12.6 µg/mL (≈ 41.4 µM). In addition, the result in assay [2] was inactive.

In the case of `CC(=O)CC[C@@H]1C(=O)C=C(C(C)C)CC[C@@H]1C` [GIBBERODIONE], the EC50 in assay [1] and in assay [2] (read-out: ED50 (the source's name)) was more than 30 µg/mL throughout.
